What was measured:
HEK-293 cells = assay: HEK-293 cytotoxicity detection (CellTiter-Glo); assay type: cell-based; conditions: Homo sapiens, 72 h, 72 h incubation, CellTiter-Glo luminescence, read-out: HEK293
How it was run: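 HEK-293 cells exposed 72 h to 8 compounds doses (4-fold dilutions, top stock 5 mM at 500×) in 0.2% DMSO. Viability by CellTiter-Glo luminescence; inhibition normalised to DMSO high control and low control, IC50 from four-parameter curve fit.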

BTK = BTK (Homo sapiens, UniProt Q06187); assay: BTK cell degradation in TMD-8 cells, HTRF assay; assay type: cell-based; design: endogenous in cells; host or cells: TMD-8 cells; conditions: 6 h treatment, IC50 (DC50) of BTK degradation
BTK, sequence (Q06187 whole entry): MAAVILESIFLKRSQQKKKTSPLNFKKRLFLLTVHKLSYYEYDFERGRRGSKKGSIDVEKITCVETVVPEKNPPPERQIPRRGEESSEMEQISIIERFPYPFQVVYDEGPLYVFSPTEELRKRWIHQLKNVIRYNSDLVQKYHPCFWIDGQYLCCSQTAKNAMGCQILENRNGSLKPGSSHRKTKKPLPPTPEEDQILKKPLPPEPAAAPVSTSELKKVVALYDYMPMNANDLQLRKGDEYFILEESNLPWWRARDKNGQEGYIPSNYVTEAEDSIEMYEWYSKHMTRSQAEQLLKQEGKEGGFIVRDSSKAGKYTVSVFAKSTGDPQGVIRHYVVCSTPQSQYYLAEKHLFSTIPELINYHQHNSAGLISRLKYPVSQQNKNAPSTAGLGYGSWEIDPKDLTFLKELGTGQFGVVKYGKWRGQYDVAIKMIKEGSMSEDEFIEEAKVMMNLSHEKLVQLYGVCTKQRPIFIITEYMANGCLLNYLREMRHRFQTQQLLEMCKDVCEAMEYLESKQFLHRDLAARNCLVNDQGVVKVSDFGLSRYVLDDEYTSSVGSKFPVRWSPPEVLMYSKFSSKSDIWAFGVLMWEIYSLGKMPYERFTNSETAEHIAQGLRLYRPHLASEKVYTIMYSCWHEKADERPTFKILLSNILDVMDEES
How it was run: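 BTK levels read by HTRF in lysates of TMD-8 cells exposed to compounds for 6 h, eight concentrations at 6-fold steps in 0.2% DMSO. Percent degradation versus DMSO and low controls was fitted with a four-parameter equation to give DC50; Dmax is maximal degradation.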

| SMILES | DC50 (BTK) | IC50 (HEK-293 cells) |
| --- | --- | --- |
| COc1c(C)cccc1C(=O)NCc1ccc(-c2nn3c(c2C(N)=O)Nc2ccc(N4CCN(CC5CCN(c6ccc(N7CCC(=O)NC7=O)cc6)CC5)CC4)cc2CC3)cc1C [Example C49, 7-(4-((1-(4-(2,4-dioxotetrahydropyrimidin-1(2H)-yl)phenyl)piperidin-4-yl)methyl)piperazin-1-yl)-2-(4-((2-methoxy-3-methylbenzamido)methyl)-3-methylphenyl)-9,10-dihydro-4H-benzo[d]pyrazolo[1,5-a][1,3]diazepine-3-carboxamide] | 9.8 nM | > 10 µM |
| NC(=O)c1c(-c2ccc(C(=O)Nc3cc(C(F)F)ccn3)cc2)nn2c1Nc1ccc(N3CCN(CC4CCN(c5ccc(N6CCC(=O)NC6=O)cc5)CC4)CC3)cc1CC2 [Example B18, 2-(4-((4-(difluoromethyl)pyridin-2-yl)carbamoyl)phenyl)-7-(4-((1-(4-(2,4-dioxotetrahydropyrimidin-1(2H)-yl)phenyl)piperidin-4-yl)methyl)piperazin-1-yl)-9,10-dihydro-4H-benzo[d]pyrazolo[1,5-a][1,3]diazepine-3-carboxamide] | 0.378 nM | > 10 µM |
| NC(=O)c1c(-c2ccc(Oc3ccccc3)cc2)nn2c1Nc1ccc(NC(=O)C3CCN(c4ccc5c(c4)C(=O)N(C4CCC(=O)NC4=O)C5=O)CC3)cc1CC2 (centres unmarked) [Example A1, 7-(1-(2-(2,6-dioxopiperidin-3-yl)-1,3-dioxoisoindolin-5-yl)piperidine-4-carboxamido)-2-(4-phenoxyphenyl)-9,10-dihydro-4H-benzo[d]pyrazolo[1,5-a][1,3]diazepine-3-carboxamide] | 3 nM | 0.417 µM |
| NC(=O)c1c(-c2ccc(Oc3ccccc3)cc2)nn2c1Nc1ccc(NCC3CCN(c4ccc5c(c4)C(=O)N(C4CCC(=O)NC4=O)C5=O)CC3)cc1CC2 (centres unmarked) [Example A3, 7-(((1-(2-(2,6-dioxopiperidin-3-yl)-1,3-dioxoisoindolin-5-yl)piperidin-4-yl)methyl)amino)-2-(4-phenoxyphenyl)-9,10-dihydro-4H-benzo[d]pyrazolo[1,5-a][1,3]diazepine-3-carboxamide] | 20.6 nM | > 10 µM |
| NC(=O)c1c(-c2ccc(Oc3ccccc3)cc2)nn2c1Nc1ccc(NC3CCN(c4ccc5c(c4)C(=O)N(C4CCC(=O)NC4=O)C5=O)CC3)cc1CC2 (centres unmarked) [Example A8, 7-((1-(2-(2,6-dioxopiperidin-3-yl)-1,3-dioxoisoindolin-5-yl)piperidin-4-yl)amino)-2-(4-phenoxyphenyl)-9,10-dihydro-4H-benzo[d]pyrazolo[1,5-a][1,3]diazepine-3-carboxamide] | 2.97 nM | 0.28 µM |
| Cc1cc(-c2nn3c(c2C(N)=O)Nc2ccc(N4CCN(CC5CCN(c6ccc(N7CCC(=O)NC7=O)cc6)CC5)CC4)cc2CC3)ccc1CNC(=O)c1ccn(C(C)(C)C)n1 [Example C9, 2-(4-((1-(tert-butyl)-1H-pyrazole-3-carboxamido)methyl)-3-methylphenyl)-7-(4-((1-(4-(2,4-dioxotetrahydropyrimidin-1(2H)-yl)phenyl)piperidin-4-yl)methyl)piperazin-1-yl)-9,10-dihydro-4H-benzo[d]pyrazolo[1,5-a][1,3]diazepine-3-carboxamide] | 54.2 nM | > 10 µM |
| Cc1cccc(NC(=O)c2ccc(-c3nn4c(c3C(N)=O)Nc3ccc(N5CCN(CCc6cccc7c6oc(=O)n7C6CCC(=O)NC6=O)CC5)cc3CC4)c(F)c2C)n1 (centres unmarked) [Example B61, 7-(4-(2-(3-(2,6-dioxopiperidin-3-yl)-2-oxo-2,3-dihydrobenzo[d]oxazol-7-yl)ethyl)piperazin-1-yl)-2-(2-fluoro-3-methyl-4-((6-methylpyridin-2-yl)carbamoyl)phenyl)-9,10-dihydro-4H-benzo[d]pyrazolo[1,5-a][1,3]diazepine-3-carboxamide] | 1.09 nM | > 10 µM |
| Cc1cccc(NC(=O)c2ccc(-c3nn4c(c3C(N)=O)Nc3ccc(N5CCN(CC6CCN(c7ccc8c(c7)CN(C7CCC(=O)NC7=O)C8=O)CC6)CC5)cc3CC4)c(F)c2C)n1 (centres unmarked) [Example B58, 7-(4-((1-(2-(2,6-dioxopiperidin-3-yl)-1-oxoisoindolin-5-yl)piperidin-4-yl)methyl)piperazin-1-yl)-2-(2-fluoro-3-methyl-4-((6-methylpyridin-2-yl)carbamoyl)phenyl)-9,10-dihydro-4H-benzo[d]pyrazolo[1,5-a][1,3]diazepine-3-carboxamide] | 2.01 nM | > 10 µM |
| NC(=O)c1c(-c2ccc(C(=O)Nc3cc(C(F)(F)F)ccn3)cc2F)nn2c1Nc1ccc(N3CCN(CC4CCN(c5ccc(N6CCC(=O)NC6=O)cc5)CC4)CC3)cc1CC2 [Example B2, 7-(4-((1-(4-(2,4-dioxotetrahydropyrimidin-1(2H)-yl)phenyl)piperidin-4-yl)methyl)piperazin-1-yl)-2-(2-fluoro-4-((4-(trifluoromethyl)pyridin-2-yl)carbamoyl)phenyl)-9,10-dihydro-4H-benzo[d]pyrazolo[1,5-a][1,3]diazepine-3-carboxamide] | 0.842 nM | > 10 µM |

Second part, led by results:

| DC50 (BTK) | SMILES | IC50 (HEK-293 cells) |
| --- | --- | --- |
| 4.1 nM | Cc1c(C(=O)Nc2ccn(C)n2)ccc(-c2nn3c(c2C(N)=O)Nc2ccc(N4CCN(CC5CCN(c6ccc(N7CCC(=O)NC7=O)cc6)CC5)CC4)cc2CC3)c1F [Example B82, 7-(4-((1-(4-(2,4-dioxotetrahydropyrimidin-1(2H)-yl)phenyl)piperidin-4-yl)methyl)piperazin-1-yl)-2-(2-fluoro-3-methyl-4-((1-methyl-1H-pyrazol-3-yl)carbamoyl)phenyl)-9,10-dihydro-4H-benzo[d]pyrazolo[1,5-a][1,3]diazepine-3-carboxamide] | > 10 µM |
| 13.5 nM | Cc1c(C(=O)Nc2cc(N3CCCC3)ccn2)ccc(-c2nn3c(c2C(N)=O)Nc2ccc(N4CCN(CC5CCN(c6ccc(N7CCC(=O)NC7=O)cc6)CC5)CC4)cc2CC3)c1F [Example B49, 7-(4-((1-(4-(2,4-dioxotetrahydropyrimidin-1(2H)-yl)phenyl)piperidin-4-yl)methyl)piperazin-1-yl)-2-(2-fluoro-3-methyl-4-((4-(pyrrolidin-1-yl)pyridin-2-yl)carbamoyl)phenyl)-9,10-dihydro-4H-benzo[d]pyrazolo[1,5-a][1,3]diazepine-3-carboxamide] | > 10 µM |
| 0.591 nM | Cc1c(C(=O)Nc2cn(C)cn2)ccc(-c2nn3c(c2C(N)=O)Nc2ccc(N4CCN(CC5CCN(c6ccc(N7CCC(=O)NC7=O)cc6)CC5)CC4)cc2CC3)c1F [Example B87, 7-(4-((1-(4-(2,4-dioxotetrahydropyrimidin-1(2H)-yl)phenyl)piperidin-4-yl)methyl)piperazin-1-yl)-2-(2-fluoro-3-methyl-4-((1-methyl-1H-imidazol-4-yl)carbamoyl)phenyl)-9,10-dihydro-4H-benzo[d]pyrazolo[1,5-a][1,3]diazepine-3-carboxamide] | > 10 µM |
| 7.15 nM | Cc1cccc(NC(=O)c2ccc(-c3nn4c(c3C(N)=O)Nc3ccc(N5CCN(C[C@H]6CCN(c7ccc(N8CCC(=O)NC8=O)cc7)C6)CC5)cc3CC4)c(F)c2C)n1 [Example B74, (R)-7-(4-((1-(4-(2,4-dioxotetrahydropyrimidin-1(2H)-yl)phenyl)pyrrolidin-3-yl)methyl)piperazin-1-yl)-2-(2-fluoro-3-methyl-4-((6-methylpyridin-2-yl)carbamoyl)phenyl)-9,10-dihydro-4H-benzo[d]pyrazolo[1,5-a][1,3]diazepine-3-carboxamide] | > 10 µM |

Reference: patent US20240246977A1, “DEGRADATION OF BRUTON'S TYROSINE KINASE (BTK) BY CONJUGATION OF BTK INHIBITORS WITH E3 LIGASE LIGAND AND METHOD OF USE” (BeiGene Switzerland GmbH, priority 2021, published 2024)
